The values that follow come from patent US7553867B2, “Furan or thiophene derivative and medicinal use thereof” (Takeda Pharmaceutical Company Limited, priority 2002, dated 2009).

SMILES strings stand for the structures.

The target of one data set is T1, PPARα-RXRα heterodimer (Homo sapiens, UniProt Q07869).
T1 construct: expressed in transfected cells; host or cells: COS-1 (transient; pMCMVneo-hPPARα + pMCMVneo-hRXRα)
T1 sequence (Q07869 1-468): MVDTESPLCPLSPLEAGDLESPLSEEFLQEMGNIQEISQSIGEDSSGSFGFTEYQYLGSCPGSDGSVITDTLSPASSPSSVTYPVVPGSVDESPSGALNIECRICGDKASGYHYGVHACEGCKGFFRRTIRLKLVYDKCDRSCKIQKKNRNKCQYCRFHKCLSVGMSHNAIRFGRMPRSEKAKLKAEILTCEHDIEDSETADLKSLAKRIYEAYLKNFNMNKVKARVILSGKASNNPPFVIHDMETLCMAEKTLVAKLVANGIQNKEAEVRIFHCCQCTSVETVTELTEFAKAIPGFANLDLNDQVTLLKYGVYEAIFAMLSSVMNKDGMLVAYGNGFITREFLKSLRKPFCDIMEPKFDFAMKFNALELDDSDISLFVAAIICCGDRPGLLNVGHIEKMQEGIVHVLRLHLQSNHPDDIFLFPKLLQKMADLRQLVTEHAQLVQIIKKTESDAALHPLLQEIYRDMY
T1 sequence (P19793 1-462 partner): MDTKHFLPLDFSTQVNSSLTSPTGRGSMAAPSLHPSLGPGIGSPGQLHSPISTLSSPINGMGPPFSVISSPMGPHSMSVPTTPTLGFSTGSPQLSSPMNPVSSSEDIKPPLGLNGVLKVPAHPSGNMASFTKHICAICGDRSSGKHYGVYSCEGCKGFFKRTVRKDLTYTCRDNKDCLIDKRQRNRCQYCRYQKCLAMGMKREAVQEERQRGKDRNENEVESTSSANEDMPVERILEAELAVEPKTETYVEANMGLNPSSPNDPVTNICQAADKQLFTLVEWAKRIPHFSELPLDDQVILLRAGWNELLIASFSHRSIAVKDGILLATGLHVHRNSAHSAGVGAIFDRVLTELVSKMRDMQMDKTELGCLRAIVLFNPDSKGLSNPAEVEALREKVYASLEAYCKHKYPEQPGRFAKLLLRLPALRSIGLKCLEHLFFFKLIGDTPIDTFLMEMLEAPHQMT
In words: PPARα-RXRα heterodimer ligand activity (luciferase reporter, transfected COS-1 cells). It is filed as cell-based. To be noted: luciferase activity at 10 nM compound relative to control without compound as 1. As to the method:
At 18 to 24 hours after transfection carried out in Reference Example 12a, COS-1 cells were collected, suspended in DMEM medium [manufactured by Life Technologies, Inc., USA] containing 0.1% BSA (fatty acid-free) (produced by Waco Pure Chemicals Industries, Ltd.), and inoculated to each well of a 96-well white plate (produced by Corning, USA) at 1×10^4 cells/well in 80 μl. Subsequently, 20 μl of a test compound was added, and the plate was incubated at 37° C. in a carbon dioxide gas incubator for 36 to 48 hours. After removal of the medium from the 96-well white plate, 40 μl of PicaGene LT 7.5 (produced by Waco Pure Chemicals Industries, Ltd.) diluted twofold with HBSS (HANKS' BALANCED SALT SOLUTION) (produced by BIO WHITTAKER) was added, and after stirring, the luciferase activity was determined using 1420 ARVO Multilabel Counter [produced by Wallac].
The fold induction was calculated from the luciferase activity for the well to which 10 nM of the compound is added, relative to the luciferase activity of a control to which the compound is not added as 1. Results are shown in [Table 3].
A COS-1 cell was inoculated in a cell culture flask (produced by Corning, USA) of 150 cm^2 at 5×10^6 cells/50 ml, and incubated under the conditions of 37° C. and 5% CO2 for 24 hours. Transfection was carried out with lipofectamine (produced by Invitrogen, USA). A transfection mixture solution was prepared by mixing 125 μl of lipofectamine, 100 μl of PLUS Reagent, 2.5 μg of pMCMVneo-hPPARα (obtained in Reference Example 11a), 2.5 μg of pMCMVneo-hRXRα (obtained in Reference Example 4a), 5 μg of reporter plasmid pGL3-4ERPP-TK neo (obtained in Reference Example 5a) and 5 μg of pRL-tk [produced by Promega, USA] with 5 ml of opti-MEM (produced by Invitrogen, USA). To COS-1 cell washed with opti-MEM, the above-mentioned transfection mixture solution and 20 ml of opti-MEM were added, and then incubated under the conditions of 37° C. and 5% CO2 for 3 hours. Then, 25 ml of DMEM medium [manufactured by Life Technologies, Inc., USA] containing 0.1% fatty acid-free bovine serum albumin (BSA) (produced by Waco Pure Chemicals Industries, Ltd.) was added thereto, and then incubated under the conditions of 37° C. and 5% CO2 for 18 to 24 hours.
(In general: A reporter such as luciferase makes a cellular process visible.)

For a further data set, the target named is T2, human GPR40 (Homo sapiens, UniProt O14842).
T2 construct: expressed in transfected cells; host or cells: CHO cell strain (No. 104)
The experiment in a line: Receptor function regulating action (agonist action) for GPR40, intracellular calcium by FLIPR in CHO cells. In kind it is cell-based. To be noted: CHO cells expressing human GPR40; change of fluorescence intensity at 30 seconds after reaction initiation. As to the method: CHO cell strain (No. 104) which have had expressed human GPR40 was diluted to contain 3×10^4 cells/100 μL, and added to a Black walled 96-well plate (Costar) at 100 μL/well, and incubated overnight in CO2 incubator. Change of intracellular calcium concentration was measured with FLIPR (Molecular Device). The method is as follows. 50 μg of Fluo-3AM (DOJIN) was dissolved in 21 μL of DMSO (DOJIN), and the same amount of 20% pluronic acid (Molecular Probes) was further added thereto, and the mixture was mixed. The mixture was added to 10.6 mL of an assay buffer [prepared by adding 10 mL of solution which was produced by adding 20 mL of 1 M HEPES (pH 7.4) (DOJIN) to 1 L of HBSS (Invitrogen), dissolving 710 mg of probenecid (Sigma) in 5 mL of 1N NaOH, and further adding 5 mL of the above-mentioned HBSS/HEPES solution thereto and mixing it.] containing 105 μL of fetal bovine serum, to give a fluorescent dye solution. The medium of the cell plate was removed, and immediately, the fluorescent dye solution was added at 100 μL/well, and incubated in CO2 incubator for 1 hour, allowing the fluorescent dye to be incorporated into the cells. The cells after incubation were washed with the above-mentioned assay buffer. The compound to be added to the cells was diluted with the assay buffer to each concentration, added to the plate for the test sample. After conducting the above-mentioned pretreatment, intracellular calcium concentration change after adding the compound was measured in FLIPR to investigate the agonist action. By dose-response curve with the change of fluorescence intensity value at 30 seconds after reaction initiation, EC50 value was calculated.
A general note: A change in cytosolic calcium serves as a functional read-out for many receptors and channels.

T2 sequence (O14842 whole entry): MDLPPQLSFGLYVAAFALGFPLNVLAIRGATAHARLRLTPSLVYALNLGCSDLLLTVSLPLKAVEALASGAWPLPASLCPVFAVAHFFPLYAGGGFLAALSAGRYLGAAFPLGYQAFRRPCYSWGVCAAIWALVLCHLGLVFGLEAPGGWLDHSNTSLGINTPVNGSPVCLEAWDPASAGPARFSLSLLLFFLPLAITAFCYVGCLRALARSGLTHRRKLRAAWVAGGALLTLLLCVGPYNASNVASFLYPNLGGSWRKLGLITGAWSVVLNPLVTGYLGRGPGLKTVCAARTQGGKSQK

At PPARα-RXRα heterodimer, `Cc1oc(-c2ccc(F)cc2)cc1C(=O)Nc1cccc(CSCC(=O)O)c1` [Example 1, [(3{[5-(4-Fluorophenyl)-2-methyl-3-furoyl]amino}benzyl)thio]acetic acid] registered a fold induction at 0.01 µM of 10.2. On the same count and under the same terms, the result for `CC(C)c1oc(-c2ccc(C(F)(F)F)cc2)cc1C(=O)Nc1cccc(CSCC(=O)O)c1` [Example 2(1), {[3-({2-Isopropyl-5-[4-(trifluoromethyl)phenyl]-3-furoyl}amino)benzyl]thio}acetic acid] reads 10.9; that for `CCc1oc(-c2ccc(C(F)(F)F)cc2)cc1COc1cccc(CSCC(=O)O)c1` [Example 5(5)], 10.1.

As for `Cc1cc(OCc2cc(-c3ccc(F)cc3)oc2C)ccc1CCC(=O)O` [Example 5(8), 3-(4-{[5-(4-Fluorophenyl)-2-methyl-3-furyl]methoxy}-2-methylphenyl)propionic acid], the melting point was in the range of 123 to 125 °C. Further, the EC50 on human GPR40 is 100 nM.

Molecule `Cc1cc(OCc2cc(-c3ccc(C(F)(F)F)cc3)oc2C(C)C)ccc1CCC(=O)O` [Example 5(10), 3-[4-({2-Isopropyl-5-[4-(trifluoromethyl)phenyl]-3-furyl}methoxy)-2-methylphenyl]propionic acid] gave a melting point of 108 to 109 °C. Also, the EC50 at human GPR40 was found to be 870 nM. For `CCCCc1oc(-c2ccc(C(F)(F)F)cc2)cc1COc1ccc(CCC(=O)O)c(C)c1` [Example 5(11), 3-[4-({2-Butyl-5-[4-(trifluoromethyl)phenyl]-3-furyl}methoxy)-2-methylphenyl]propionic acid], in that order: 118 to 119 °C and 580 nM.

With `Cc1oc(-c2ccc(F)cc2)cc1COc1cccc(CSCC(=O)O)c1` [Example 6(1), [(3-{[5-(4-Fluorophenyl)-2-methyl-3-furyl]methoxy}benzyl)thio]acetic acid], the melting point fell in the range of 120 to 122 °C. In addition, the fold induction at 0.01 µM at PPARα-RXRα heterodimer was found to be 8.9. `Cc1oc(-c2ccc(C(F)(F)F)cc2)cc1COc1cccc(CSCC(=O)O)c1` [Example 6(2), {[3-({2-Methyl-5-[4-(trifluoromethyl)phenyl]-3-furyl}methoxy)benzyl]thio}acetic acid]: the fold induction at 0.01 µM on PPARα-RXRα heterodimer came out at 9.2. Molecule `Cc1oc(-c2ccc(C(F)(F)F)cc2)cc1COc1ccc(OCC(=O)O)cc1` [Example 6(7), [4-({2-Methyl-5-[4-(trifluoromethyl)phenyl]-3-furyl}methoxy)phenoxy]acetic acid] returned a melting point of 168 to 169 °C. In addition, the EC50 at human GPR40 came to 290 nM.

Molecule `Cc1oc(-c2ccc(F)cc2)cc1COc1cccc(CSC(C)(C)C(=O)O)c1` [Example 6, 2-[(3-{[5-(4-Fluorophenyl)-2-methyl-3-furyl]methoxy}benzyl)thio]-2-methylpropionic acid] displayed a fold induction at 0.01 µM at PPARα-RXRα heterodimer of 9.3.

Take `Cc1cc(-c2ccc(C(F)(F)F)cc2)oc1COc1ccc(CC(C)(C)C(=O)O)cc1` [Example 20(1), 2,2-Dimethyl-3-[4-({3-methyl-5-[4-(trifluoromethyl)phenyl]-2-furyl}methoxy)phenyl]propionic acid]: the melting point fell in the range of 124 to 126 °C.

`Cc1cc(-c2ccc(C(F)(F)F)cc2)oc1COc1ccc(OC(C)(C)C(=O)O)cc1` [Example 20(2), 2-Methyl-2-[4-({3-methyl-5-[4-(trifluoromethyl)phenyl]-2-furyl}methoxy)phenoxy]propionic acid] registered a melting point of 116 to 117 °C.

On to `CCOC(=O)C(C)(C)Oc1ccc(/C=C\c2cc(-c3ccc(C(F)(F)F)cc3)oc2C)cc1` [Example 21-b, Ethyl 2-methyl-2-[4-((Z)-2-{2-methyl-5-[4-(trifluoromethyl)phenyl]-3-furyl}ethenyl)phenoxy]propionate], for which the melting point is 84 to 85 °C. The same measure, in the same setting: under `Cc1oc(-c2ccc(C(F)(F)F)cc2)cc1/C=C/c1ccc(OC(C)(C)C(=O)O)cc1` [Example 22(1), 2-Methyl-2-[4-((E)-2-{2-methyl-5-[4-(trifluoromethyl)phenyl]-3-furyl}ethenyl)phenoxy]propionic acid] stands 140 to 141 °C; under `Cc1oc(-c2ccc(C(F)(F)F)cc2)cc1/C=C\c1ccc(OC(C)(C)C(=O)O)cc1` [Example 22(2), 2-Methyl-2-[4-((Z)-2-{2-methyl-5-[4-(trifluoromethyl)phenyl]-3-furyl}ethenyl)phenoxy]propionic acid], 117 to 118 °C. In the case of `CCCCC/C=C\C/C=C\C/C=C\CCCCC(=O)O` [γ-linolenic acid], the EC50 on human GPR40 is 2000 nM.

As a reminder, the fold induction is the signal under treatment as a multiple of the control signal. One may read the EC50 as the midpoint of the concentration-response curve. One may read the melting point as the temperature of the solid-liquid transition.
